# Test results: ChEMBL document CHEMBL1201862, “PubChem BioAssay data set” (2004)
#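 48-hour exposure; five concentrations; linearly interpolated endpoints. Abbreviation: GI50, concentration required for 50% inhibition of growth.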 Calls of active or inactive are those of the source. Rule as the data show it: active = GI50 up to about 1.1 µM and inactive = higher.
# Tests used:
# Test in all cases: inhibition of tumour cell growth, NCI panel, 48 h
# [1] = system: ACHN
# [2] = system: CAKI-1
# [3] = system: COLO 205
# [4] = system: DU-145
# [5] = system: HCT-116
# [6] = system: MDA-MB-231
# [7] = system: MDA-N
# [8] = system: NCI-H226
# [9] = system: NCI-H522
# [10] = system: NCI/ADR-RES
# [11] = system: RPMI-8226
# [12] = system: RXF 393
# [13] = system: SN12C
# [14] = system: SW-620
# [15] = system: T47D
# [16] = system: TK-10
# [17] = system: UACC-257
# [18] = system: K562
# [19] = system: OVCAR-4
Structure (SMILES),GI50 [1],GI50 [2],GI50 [3],GI50 [4],GI50 [5],GI50 [6],GI50 [7],GI50 [8],GI50 [9],GI50 [10],GI50 [11],GI50 [12],GI50 [13],GI50 [14],GI50 [15],GI50 [16],GI50 [17],GI50 [18],GI50 [19]
CC#CC(O)(C(=O)OC1CCC2CCC1N2C)C1CCCC1 (configuration not stated),> 10 µM (inactive),> 100 µM (inactive),> 100 µM (inactive),> 100 µM (inactive),> 100 µM (inactive),> 100 µM (inactive),> 100 µM (inactive),> 100 µM (inactive),> 100 µM (inactive),> 10 µM (inactive),> 100 µM (inactive),> 100 µM (inactive),> 100 µM (inactive),> 100 µM (inactive),> 100 µM (inactive),> 100 µM (inactive),> 100 µM (inactive),,
O=C(O)CCCCCOc1cccnc1/C=N/NC1=NCCN1,> 100 µM (inactive),> 100 µM (inactive),> 100 µM (inactive),,> 100 µM (inactive),,,> 100 µM (inactive),> 100 µM (inactive),,> 100 µM (inactive),> 100 µM (inactive),> 100 µM (inactive),> 100 µM (inactive),,> 100 µM (inactive),> 100 µM (inactive),> 100 µM (inactive),> 100 µM (inactive)
CCOC(=O)c1cn(-c2ccc(Cl)cc2)c(=O)n2c1nc1ccccc12,> 100 µM (inactive),> 100 µM (inactive),> 100 µM (inactive),> 100 µM (inactive),> 100 µM (inactive),> 100 µM (inactive),,> 100 µM (inactive),,> 100 µM (inactive),> 100 µM (inactive),> 100 µM (inactive),> 100 µM (inactive),> 100 µM (inactive),> 100 µM (inactive),,> 100 µM (inactive),> 100 µM (inactive),> 100 µM (inactive)
O=C1c2ccccc2C(=O)C1C(c1ccc([N+](=O)[O-])cc1)C1C(=O)c2ccccc2C1=O,> 100 µM (inactive),28.8 µM (inactive),> 100 µM (inactive),,24.3 µM (inactive),,,59.7 µM (inactive),63.4 µM (inactive),,54.5 µM (inactive),14.3 µM (inactive),36.6 µM (inactive),17.9 µM (inactive),,> 100 µM (inactive),33.7 µM (inactive),> 100 µM (inactive),> 100 µM (inactive)
O=C(CCc1nnc(S)[nH]1)Nc1ccccc1Cl,> 100 µM (inactive),> 100 µM (inactive),> 100 µM (inactive),,> 100 µM (inactive),,,> 100 µM (inactive),> 100 µM (inactive),,> 100 µM (inactive),> 100 µM (inactive),> 100 µM (inactive),18.2 µM (inactive),,> 100 µM (inactive),> 100 µM (inactive),> 100 µM (inactive),> 100 µM (inactive)
CCC(/C(=N/NC(=O)C[N+](C)(C)C)c1ccccc1)C1OC(=O)c2ccccc21 (configuration not stated),> 100 µM (inactive),> 100 µM (inactive),> 100 µM (inactive),,> 100 µM (inactive),,,> 100 µM (inactive),> 100 µM (inactive),,> 100 µM (inactive),> 100 µM (inactive),> 100 µM (inactive),> 100 µM (inactive),,> 100 µM (inactive),> 100 µM (inactive),> 100 µM (inactive),> 100 µM (inactive)
O=c1[nH]cc(COCCCO)c(=O)[nH]1,> 100 µM (inactive),> 100 µM (inactive),> 100 µM (inactive),,> 100 µM (inactive),,,> 100 µM (inactive),> 100 µM (inactive),,> 100 µM (inactive),> 100 µM (inactive),> 100 µM (inactive),> 100 µM (inactive),,> 100 µM (inactive),> 100 µM (inactive),> 100 µM (inactive),> 100 µM (inactive)
COC(=O)C(C(=O)c1ccccc1)C(C(=O)C(=O)Nc1ccc(OC)cc1OC)C(=O)C(=O)c1ccc(C)cc1 (configuration not stated),> 100 µM (inactive),> 100 µM (inactive),> 100 µM (inactive),,> 100 µM (inactive),,,> 100 µM (inactive),> 100 µM (inactive),,> 100 µM (inactive),> 100 µM (inactive),> 100 µM (inactive),> 100 µM (inactive),,> 100 µM (inactive),> 100 µM (inactive),> 100 µM (inactive),> 100 µM (inactive)
COC(=O)c1nc(N)nc(O)c1-c1ccc(Cl)cc1,> 100 µM (inactive),> 100 µM (inactive),> 100 µM (inactive),,> 100 µM (inactive),,,> 100 µM (inactive),> 100 µM (inactive),,> 100 µM (inactive),> 100 µM (inactive),> 100 µM (inactive),> 100 µM (inactive),,> 100 µM (inactive),> 100 µM (inactive),> 100 µM (inactive),> 100 µM (inactive)
CC(=O)OC(/C=C1/C=CC(=O)O1)COC(=O)c1ccccc1 (configuration not stated) [ACETYLMELODORINOL],> 31.2 µM (inactive),> 31.2 µM (inactive),> 31.2 µM (inactive),,> 31.2 µM (inactive),,,> 31.2 µM (inactive),> 31.2 µM (inactive),,> 31.2 µM (inactive),> 31.2 µM (inactive),> 31.2 µM (inactive),> 31.2 µM (inactive),,> 31.2 µM (inactive),> 31.2 µM (inactive),10.5 µM (inactive),> 31.2 µM (inactive)
NNC(=O)Nc1cccnc1,> 100 µM (inactive),> 100 µM (inactive),> 100 µM (inactive),> 100 µM (inactive),> 100 µM (inactive),> 100 µM (inactive),> 100 µM (inactive),> 100 µM (inactive),> 100 µM (inactive),> 100 µM (inactive),> 100 µM (inactive),> 100 µM (inactive),> 100 µM (inactive),> 100 µM (inactive),> 100 µM (inactive),> 100 µM (inactive),> 100 µM (inactive),> 100 µM (inactive),> 100 µM (inactive)
O=C(/C(=N/Nc1cn[nH]c(=O)c1Cl)c1ccccc1)c1ccccc1,57.9 µM (inactive),19.7 µM (inactive),20.3 µM (inactive),20.5 µM (inactive),23.1 µM (inactive),24.7 µM (inactive),4.99 µM (inactive),25.3 µM (inactive),17.1 µM (inactive),17.5 µM (inactive),24.6 µM (inactive),0.326 µM (active),27.4 µM (inactive),31.3 µM (inactive),28.4 µM (inactive),24.9 µM (inactive),29.2 µM (inactive),24.5 µM (inactive),41.7 µM (inactive)
O=c1nc(NC(c2ccccc2)(c2ccccc2)c2ccccc2)ccn1CCNCCn1ccc(NC(c2ccccc2)(c2ccccc2)c2ccccc2)nc1=O,40.6 µM (inactive),14.8 µM (inactive),10.7 µM (inactive),,3.92 µM (inactive),,,14.5 µM (inactive),4.66 µM (inactive),,2.55 µM (inactive),11.8 µM (inactive),12.4 µM (inactive),6.64 µM (inactive),,26.9 µM (inactive),5.82 µM (inactive),3.46 µM (inactive),14.2 µM (inactive)
